{"source": "patent US10232002B1", "about": "“Oncolytic HSV1 vectors and methods of using the same” (priority 2012, dated 2019)", "test_system": "U87ΔEGFR glioma cells"}
{"smiles": "Cn1nnc2c(C(N)=O)ncn2c1=O", "note": "[TMZ, temozolomide]", "values": [{"measurement": "EC30 dose", "value": 66, "unit": "µM"}]}
